Data published in patent publication EP0111607A1, “Tropyl and pseudotropyl alkyl-benzoates and their use in migraine treatment” (MERRELL TORAUDE ET COMPAGNIE, priority 1982, dated 1984).
Like-named read-outs stand apart in the source and are kept apart here.

What was measured:
5-HT M-receptor [1] = biological target: T1, 5-HT M-receptor (Oryctolagus cuniculus, UniProt G1TUQ4); settings: 5-HT M-receptor antagonism, cited from earlier work
T1 sequence (G1TUQ4 24-513): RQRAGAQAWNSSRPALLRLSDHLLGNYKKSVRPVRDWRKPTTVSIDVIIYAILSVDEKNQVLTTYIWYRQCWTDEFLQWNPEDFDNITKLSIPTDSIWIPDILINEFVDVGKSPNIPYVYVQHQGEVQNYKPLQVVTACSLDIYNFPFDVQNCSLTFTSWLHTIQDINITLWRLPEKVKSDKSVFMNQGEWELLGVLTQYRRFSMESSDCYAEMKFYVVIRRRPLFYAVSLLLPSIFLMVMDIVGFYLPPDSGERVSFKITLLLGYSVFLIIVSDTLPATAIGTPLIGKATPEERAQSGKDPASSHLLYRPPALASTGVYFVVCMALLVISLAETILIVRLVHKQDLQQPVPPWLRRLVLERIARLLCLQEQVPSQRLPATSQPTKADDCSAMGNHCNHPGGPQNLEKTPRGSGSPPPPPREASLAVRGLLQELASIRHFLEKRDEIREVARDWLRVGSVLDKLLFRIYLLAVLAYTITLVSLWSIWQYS

5-HT M-receptor [2] = biological target: T1, 5-HT M-receptor; assay: pA2 against 5-HT in the isolated rabbit heart
Description: The activity of the compounds against 5-HT can be assessed by determining their pA2 values in the isolated rabbit heart as described by Fozard et at Europ. J. Pharmacol. 59, 195-210 (1979). In the method described the molar concentration of antagonist which reduces the effects of twice the ED50 of 5-HT to that of the ED50 in the absence of antagonist is determined. The pA2 value is the negative logarithm of said molar concentrations.

[3] = reported by Fozard et al., Eur. J. Pharmacol. 59(1979) and 49(1978), same procedure
[4] = Table III, related compounds for comparative purposes
[5] = tests referred to with European Patent Application No. 82401060.7
[6] = Table II, representative compounds of Formula I

Q: Which pA2 (5-HT M-receptor [1]; [3]) does the source give for `COC(=O)[C@H]1[C@@H](OC(=O)c2ccccc2)C[C@@H]2CC[C@H]1N2` [nor(-)cocaine] here?
A: Its pA2 is 7.7.

Q: Which “pA2 5-HT” value (5-HT M-receptor [2]; [4]) does the source give for `CN1C2CCC1CC(OC(=O)c1ccc(Cl)cc1)C2` (stereo not shown) [pseudotropyl-4-chlorobenzoate] here?
A: The value was 6.7.

Q: With `CN1C2CCC1CC(OC(=O)c1ccc(Cl)cc1)C2` (stereo not shown) [tropyl 4-chlorobenzoate] as the compound, how does the pA2 (5-HT M-receptor [1]; [5]) read?
A: The pA2 was 7.0.

Q: For `Cc1cc(C)cc(C(=O)OC2CC3CCC(C2)N3C)c1` (stereo not drawn) [pseudotropyl 3,5-dimethylbenzoate, 3,5-DIMETHYL-BENZOIC ACID EXO-8-METHYL-8-AZABICYCLO[3,2,1]OCT-3-YL ESTER], which “pA2 5-HT” value (5-HT M-receptor [2]; [6]) is on record?
A: Its value is 8.9.

Q: For `Cc1ccc(C)c(C(=O)OC2CC3CCC(C2)N3C)c1` (stereo not shown) [tropyl 2,5-dimethylbenzoate], which “pA2 5-HT” value (5-HT M-receptor [2]; [6]) is on record?
A: The value was 8.6.

Q: With `Cc1ccccc1C(=O)OC1CC2CCC(C1)N2C` (stereo not shown) [tropyl 2-methylbenzoate] as the compound, how does the “pA2 5-HT” value (5-HT M-receptor [2]; [6]) read?
A: Its value is 8.1.

Q: Which pA2 (5-HT M-receptor [1]; [3]) does the source give for `CN1[C@@H]2CC[C@H]1C[C@@H](OC(=O)c1ccccc1)C2` [tropyl benzoate] here?
A: Its pA2 is 7.2.

Q: For `COc1ccc(C(=O)O[C@H]2C[C@H]3CC[C@@H](C2)N3C)cc1OC` [tropyl 3,4-dimethoxybenzoate], which pA2 (5-HT M-receptor [1]; [5]) is on record?
A: Its pA2 is 7.2.

Q: Which pA2 (5-HT M-receptor [1]; [5]) does the source give for `COc1cc(C(=O)OC2CC3CCC(C2)N3C)cc(OC)c1OC` (stereo not shown) [pseudotropyl-3,4,5-trimethoxybenzoate] here?
A: The pA2 was 5.7.

Q: For `Cc1ccc(C(=O)O[C@H]2C[C@H]3CC[C@@H](C2)N3C)cc1` [tropyl 4-methylbenzoate], which pA2 (5-HT M-receptor [1]; [5]) is on record?
A: The pA2 was 7.8.

Q: With `CN1C2CCC1CC(OC(=O)c1ccc(Cl)c(Cl)c1)C2` (stereo not shown) [tropyl-3,4-dichlorobenzoate] as the compound, how does the pA2 (5-HT M-receptor [1]; [5]) read?
A: The pA2 was 7.8.

Q: With `CN1C2CCC1CC(OC(=O)c1ccccc1)C2` (stereo not shown) [pseudotropyl benzoate] as the compound, how does the “pA2 5-HT” value (5-HT M-receptor [2]; [4]) read?
A: The value was 7.0.

Q: And the pA2 (5-HT M-receptor [1]; [3])?
A: The pA2 was 7.0.

Q: With `CCN(CC)CCNC(=O)c1cc(Cl)c(N)cc1OC` [metoclopramide] as the compound, how does the pA2 (5-HT M-receptor [1]; [3]) read?
A: The pA2 was 7.2.

Q: For `CN1C2CCC1CC(OC(=O)c1ccc(Cl)c(Cl)c1)C2` (stereo not shown) [pseudotropyl-3,4-dichlorobenzoate], which “pA2 5-HT” value (5-HT M-receptor [2]; [4]) is on record?
A: The value was 7.5.

Q: With `Cc1ccc(C(=O)OC2CC3CCC(C2)N3C)c(C)c1` (stereo not shown) [tropyl 2,4-dimethylbenzoate] as the compound, how does the “pA2 5-HT” value (5-HT M-receptor [2]; [6]) read?
A: Its value is 8.8.

Q: With `Cc1ccc(C(=O)OC2CC3CCC(C2)N3C)cc1C` (stereo not drawn) [tropyl 3,4-dimethylbenzoate, 3,4-DIMET[…] ENDO-8-METHYL-8-AZABICYCLO[3,2,1]OCT-3-YL ESTER] as the compound, how does the “pA2 5-HT” value (5-HT M-receptor [2]; [6]) read?
A: Its value is 8.2.

Q: For `COc1cc(OC)cc(C(=O)OC2CC3CCC(C2)N3C)c1` (stereo not shown) [pseudotropyl-3,5-dimethoxybenzoate], which pA2 (5-HT M-receptor [1]; [5]) is on record?
A: Its pA2 is 6.6.

Q: For `Cc1cccc(C(=O)OC2CC3CCC(C2)N3C)c1` (stereo not shown) [tropyl 3-methylbenzoate], which “pA2 5-HT” value (5-HT M-receptor [2]; [4]) is on record?
A: Its value is 8.1.
